Source: patent publication US10821115B2, “Compounds that inhibit Mcl-1 protein” (priority 2017, dated 2020)
Where two headings read alike, the source gives them in different places.

How the values were obtained:
[1] = system: human multiple myeloma cell line, OPM-2; experiment: Cell viability assay (OPM-2 10 FBS), CellTiter-Glo; type: cell-based
Method in brief: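 IC50 values come from 4-parameter logistic fits of luminescence signals reflecting cell viability. Treatment lasted 16 h at 37 °C in complete medium with 10% FBS, starting from 3000 cells/well.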

[2] = target: recombinant human Mcl-1 (residues 171-327) / Bim interaction (Homo sapiens (Human), UniProt Q07820); experiment: biochemical; type: binding; settings: read-out: Mcl-1 HTRF IC50
recombinant human Mcl-1 (residues 171-327) / Bim interaction, sequence (Q07820 171-327): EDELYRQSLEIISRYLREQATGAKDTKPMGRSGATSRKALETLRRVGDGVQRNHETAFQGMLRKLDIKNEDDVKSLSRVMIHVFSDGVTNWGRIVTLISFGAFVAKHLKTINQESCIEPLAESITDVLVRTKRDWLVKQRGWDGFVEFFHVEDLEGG

[3] = Homo sapiens, OPM-2, 16 h, read-out: OPM-2 10% FBS IC50 IP, OPM-2 cells, 10% FBS, 16 h, CellTiter-Glo
[4] = TR-FRET, Mcl-1(171-327) / biotin-Bim (51-76)
[5] = read-out: OPM-2 10% FBS IC50 IP, OPM-2 cells, 10% FBS, 16 h, CellTiter-Glo
[6] = Homo sapiens, OPM-2, 16 h, read-out: OPM-2 10% FBS IC50 IP, OPM-2 cells, 10% FBS, 16 h incubation
[7] = 0.1 nM Mcl-1(171-327), 0.05 nM biotin-Bim (51-76)

C[C@@H]1[C@@H](C)CCC[C@@]2(CC(N(C)C)=NO2)[C@@H]2CC[C@H]2CN2C[C@@]3(CCCc4cc(Cl)ccc43)COc3ccc(cc32)C(=O)NS1(=O)=O [Example 100197, (1S,3′R,6′R,7′R,11′S,12′R)-6-chloro-3″- (dimethylamino)-11′,12′-dimethyl-3,4-dihydro-2H,4″H,15′H-dispiro[naphthalene-1,22′-[20]oxa[13]thia[1,14]diazatetracyclo [14.7.2.0~3,6~.0~19,24~]pentacosa[16,18,24]triene-7′,5″-[1,2]oxazol]-15′-one 13′,13′-dioxide] was tested, and the IC50 [1, 3] was 2460 nM and the IC50 [2, 4] was 0.774 nM.
C[C@@H]1[C@@H](C)C/C=C/[C@](O)(c2ccncn2)[C@@H]2CC[C@H]2CN2C[C@@]3(CCCc4cc(Cl)ccc43)COc3ccc(cc32)C(=O)NS1(=O)=O [Example 100361, (1S,3′R,6′R,7′R,8′E,11′S,12′R)-6-chloro-7′-hydroxy-11′,12′-dimethyl-7′-(4-pyrimidinyl)-3,4-dihydro-2H,15′H-spiro[naphthalene-1,22′-[20]oxa[13]thia[1,14]diazatetracyclo [14.7.2.0~3,6~.0~19,24~]pentacosa[8,16,18,24]tetraen]-15′-one 13′,13′-dioxide] gave an IC50 [1, 3] of 155 nM and an IC50 [2, 4] of 0.208 nM.
Work on C[C@@H]1[C@@H](C)CCC[C@](O)(CC(=S)N(C)C)[C@@H]2CC[C@H]2CN2C[C@@]3(CCCc4cc(Cl)ccc43)COc3ccc(cc32)C(=O)NS1(=O)=O (single isomer, unassigned) [Example 100172] yielded an IC50 [1, 5] of 1570 nM and an IC50 [2, 4] of 1.29 nM.
Compound CCCO[C@]1(CN2CCN3CCOC[C@@H]3C2)/C=C/C[C@H](C)[C@@H](C)S(=O)(=O)NC(=O)c2ccc3c(c2)N(C[C@@H]2CC[C@H]21)C[C@@]1(CCCc2cc(Cl)ccc21)CO3 [Example 351, (1S,3′R,6′R,7′R,8′E,11′S,12′R)-6-chloro-7′-((9aS)-hexahydropyrazino[2,1-c][1,4]oxazin-8(1H)-ylmethyl)-11′,12′-dimethyl-7′-propoxy-3,4-dihydro-2H,15′H-spiro[naphthalene-1,22′-[20]oxa[13]thia[1,14]diazatetracyclo [14.7.2.0~3,6~.0~19,24~]pentacosa[8,16,18,24]tetraen]-15′-one 13′,13′-dioxide] has an IC50 [1, 6] of 196 nM and an IC50 [2, 7] of 0.121 nM.
CO[C@@]1(CN2CCN(C)CC2)/C=C/C[C@H](C)[C@@H](C)S(=O)(=O)NC(=O)c2ccc3c(c2)N(C[C@@H]2CC[C@H]21)C[C@@]1(CCCc2cc(Cl)ccc21)CO3 [Example 196, (1S,3′R,6′R,7′S,8′E,11′S,12′R)-6-chloro-7′-methoxy-11′,12′-dimethyl-7′-((4-methyl-1-piperazinyl)methyl)-3,4-dihydro-2H,15′H-spiro[naphthalene-1,22′-[20]oxa[13]thia[1,14]diazatetracyclo [14.7.2.0~3,6~.0~19,24~]pentacosa[8,16,18,24]tetraen]-15′-one 13′,13′-dioxide] was tested, and the IC50 [1, 6] was 304 nM and the IC50 [2, 7] was 0.47 nM.
Compound CO[C@@]1(c2cccc(F)n2)/C=C/C[C@H](C)[C@@H](C)S(=O)(=O)NC(=O)c2ccc3c(c2)N(C[C@@H]2CC[C@H]21)C[C@@]1(CCCc2cc(Cl)ccc21)CO3 (single isomer, unassigned) [Example 100339] has an IC50 [1, 3] of 1380 nM and an IC50 [2, 4] of 0.186 nM.
CO[C@@]1(c2cnc(Cl)n2C)/C=C/C[C@H](C)[C@@H](C)S(=O)(=O)NC(=O)c2ccc3c(c2)N(C[C@@H]2CC[C@H]21)C[C@@]1(CCCc2cc(Cl)ccc21)CO3 (single isomer, unassigned) [Example 100558] was tested, and the IC50 [1, 3] was 274 nM and the IC50 [2, 4] was 0.086 nM.
COCC[C@@H]1[C@@H](C)C/C=C/[C@@](O)(C2SCCCS2)[C@@H]2CC[C@H]2CN2C[C@@]3(CCCc4cc(Cl)ccc43)COc3ccc(cc32)C(=O)NS1(=O)=O [Example 100513, (1S,3′R,6′R,7′S,8′E,11′S,12′R)-6-chloro-7′-(1,3-dithian-2-yl)-7′-hydroxy-12′-(2-methoxyethyl)-11′-methyl-3,4-dihydro-2H,15′H-spiro[naphthalene-1,22′-[20]oxa[13]thia[1,14]diazatetracyclo [14.7.2.0~3,6~.0~19,24~]pentacosa[8,16,18,24]tetraen]-15′-one 13′,13′-dioxide] gave an IC50 [1, 3] of 288 nM and an IC50 [2, 4] of 0.071 nM.
Compound CO[C@@]1(CN2CCN(c3ncccn3)CC2)/C=C/C[C@H](C)[C@@H](C)S(=O)(=O)NC(=O)c2ccc3c(c2)N(C[C@@H]2CC[C@H]21)C[C@@]1(CCCc2cc(Cl)ccc21)CO3 [Example 256, (1S,3′R,6′R,7′S,8′E,11′S,12′R)-6-chloro-7′-methoxy-11′,12′-dimethyl-7′-((4-(2-pyrimidinyl)-1-piperazinyl)methyl)-3,4-dihydro-2H,15′H-spiro[naphthalene-1,22′-[20]oxa[13]thia[1,14]diazatetracyclo [14.7.2.0~3,6~.0~19,24~]pentacosa[8,16,18,24]tetraen]-15′-one 13′,13′-dioxide] has an IC50 [1, 6] of 1640 nM and an IC50 [2, 7] of 0.433 nM.
CO[C@@]1(CN2CCN3CCCC[C@@H]3C2)/C=C/C[C@H](C)[C@@H](C)S(=O)(=O)NC(=O)c2ccc3c(n2)N(C[C@@H]2CC[C@H]21)C[C@@]1(CCCc2cc(Cl)ccc21)CO3 [Example 372, (1S,3′R,6′R,7′S,8′E,11′S,12′R)-6-chloro-7′-methoxy-11′,12′-dimethyl-7′-((9aR)-octahydro-2H-pyrido[1,2-a]pyrazin-2-ylmethyl)-3,4-dihydro-2H,15′H-spiro[naphthalene-1,22′-[20]oxa[13]thia[1,14,25]triazatetracyclo [14.7.2.0~3,6~.0~19,24~]pentacosa[8,16,18,24]tetraen]-15′-one 13′,13′-dioxide] showed an IC50 [1, 6] of 85 nM and an IC50 [2, 7] of 0.175 nM.
CCOP(=O)(OCC)C(F)(F)[C@]1(O)/C=C/C[C@H](C)[C@@H](C)S(=O)(=O)NC(=O)c2ccc3c(c2)N(C[C@@H]2CC[C@H]21)C[C@@]1(CCCc2cc(Cl)ccc21)CO3 [Example 100068, diethyl (((1S,3′R,6′R,7′S,8′E,11′S,12′R)-6-chloro-7′-hydroxy-11′,12′-dimethyl-13′,13′-dioxido-15′-oxo-3,4-dihydro-2H-spiro[naphthalene-1,22′-[20]oxa[13]thia[1,14]diazatetracyclo [14.7.2.0~3,6~.0~19,24~]pentacosa[8,16,18,24]tetraen]-7′-yl)(difluoro)methyl)phosphonate] was tested, and the IC50 [1, 5] was 765 nM and the IC50 [2, 4] was 4.41 nM.
Work on C[C@@H]1[C@@H](C)CCC[C@]2(OCCS2)[C@@H]2CC[C@H]2CN2C[C@@]3(CCCc4cc(Cl)ccc43)COc3ccc(cc32)C(=O)NS1(=O)=O (single isomer, unassigned) [Example 100116] yielded an IC50 [1, 3] of 5940 nM and an IC50 [2, 4] of 3.78 nM.
Compound CO[C@@]1(CN2CC3(C2)CS(=O)(=O)C3)/C=C/C[C@H](C)[C@@H](C)S(=O)(=O)NC(=O)c2ccc3c(c2)N(C[C@@H]2CC[C@H]21)C[C@@]1(CCCc2cc(Cl)ccc21)CO3 [Example 202, (1S,3′R,6′R,7′S,8′E,11′S,12′R)-6-chloro-7′-((2,2-dioxido-2-thia-6-azaspiro[3 .3]hept-6-yl)methyl)-7′-methoxy-11′,12′-dimethyl-3,4-dihydro-2H,15′H-spiro[naphthalene-1,22′-[20]oxa[13]thia[1,14]diazatetracyclo [14.7.2.0~3,6~.0~19,24~]pentacosa[8,16,18,24]tetraen]-15′-one 13′,13′-dioxide] has an IC50 [1, 6] of 142 nM and an IC50 [2, 7] of 0.058 nM.
For C[C@@H]1[C@@H](C)C/C=C/[C@](CN2CCN3CCOC[C@@H]3C2)(OCC(F)(F)F)[C@@H]2CC[C@H]2CN2C[C@@]3(CCCc4cc(Cl)ccc43)COc3ccc(cc32)C(=O)NS1(=O)=O [Example 49, (1S,3′R,6′R,7′S,8′E,11′S,12′R)-6-chloro-7′-((9aS)-hexahydropyrazino[2,1-c][1,4]oxazin-8(1H)-ylmethyl)-11′,12′-dimethyl-7′-(2,2,2-trifluoroethoxy)-3,4-dihydro-2H,15′H-spiro[naphthalene-1,22′-[20]oxa[13]thia[1,14]diazatetracyclo [14.7.2.0~3,6~.0~19,24~]pentacosa[8,16,18,24]tetraen]-15′-one 13′,13′-dioxide], the IC50 [1, 6] was 185 nM and the IC50 [2, 7] was 0.087 nM.
COCCN(C)C(=O)C[C@]1(O)/C=C/C[C@H](C)[C@@H](C)S(=O)(=O)NC(=O)c2ccc3c(c2)N(C[C@@H]2CC[C@H]21)C[C@@]1(CCCc2cc(Cl)ccc21)CO3 [Example 100277, 2-((1S,3′R,6′R,7′S,8′E,11′S,12′R)-6-chloro-7′-hydroxy-11′,12′-dimethyl-13′,13′-dioxido-15′-oxo-3,4-dihydro-2H-spiro[naphthalene-1,22′-[20]oxa[13]thia[1,14]diazatetracyclo [14.7.2.0~3,6~.0~19,24~]pentacosa[8,16,18,24]tetraen]-7′-yl)-N-(2-methoxyethyl)-N-methylacetamide] showed an IC50 [1, 3] of 448 nM and an IC50 [2, 4] of 0.266 nM.
In the case of “(1S,3′R,6′R,7′S,8′E,11′S,12′R)-6-chloro-7′-((9aS)-hexahydropyrazino[2,1-c][1,4]oxazin-8(1H)-ylmethyl)-7′-methoxy-11′-methyl-3,4-dihydro-2H,16′H-spiro[naphthalene-1,23′-[21]oxa[27]thia[1,15]diazapentacyclo[15.7.2.1-12,15˜.0˜3,6˜.0˜20,25˜]heptacos a[8,17,19,25]tetraen]-16′-one 27′,27′-dioxide [Example 364]”, the IC50 ([1]; read-out: OPM-2 10% FBS IC50 IP, OPM-2 cells, 10% FBS, 16 h incubation) is reported as over 33300 nM and the IC50 [2, 7] is reported as 192 nM.
